Source: patent US20200246277A1, “Composition For Alleviating, Preventing Or Treating Premenstrual Syndrome, Containing, As Active Ingredient, Pinitol, D-Chiro-Inositol Or Analog Compound Thereof” (DY NATURAL CO., LTD., priority 2015, published 2020)
“Also recorded” adds a separate entry of the source.

Test system: premenstrual syndrome
Assay: Blind test with questionnaire survey: alleviating effect on premenstrual syndrome, once a day for eight weeks
Assay type: in vivo, women
Details: for share of group with somewhat or significant alleviation of the main symptoms of premenstrual syndrome: administration group of 600 mg, across main symptoms; for share of group that answered alleviation in the main symptoms / share of group that did not feel changes in the main symptoms of premenstrual syndrome: administration group of 1,200 mg or 2,400 mg; for alleviation, percentage / alleviation, the number of people / complete alleviation, percentage / complete alleviation, the number of people / no change, percentage / no change, the number of people / significant alleviation, percentage / significant alleviation, the number of people: eight weeks; for effect on the main symptoms of premenstrual syndrome (dysmenorrhea, period of dysmenorrhea, coldness of hands and feet), in words: daily dose of 600 mg, 1,200 mg, and 2,400 mg
Description: 1. Evaluation of Administration of Pinitol or D-Chiro-Inositol to Female Subject Pinitol and D-chiro-inositol were purchased from Biosearch Life (Camino de Purchil, 66. 18004 Granada, Spain). Selected as experiment subjects were 80 normal women of reproductive age, that is, 80 women at the age of 25-40 who had neither skipped three or more cycles of menstruation, nor been administered with a contraceptive pill, and nor received a psychiatric treatment. Of them, 40 persons were classified into four groups of 10 which were then administered respectively with a placebo free of pinitol and having no pharmaceutical effects and with pinitol at three different doses. Likewise, the remaining 40 persons were equally divided into one placebo group and three experimental groups to which D-chiro-inositol was administered at three different doses, respectively. A blind test was conducted in which the placebo and pinitol or D-chiro-inositol was administered once a day for eight weeks. Pinitol or D-chiro-inositol was administered at daily doses of 600 mg, 1,200 mg, and 2,400 mg for eight weeks. A survey was made of the experimental subjects before and after the clinical test of placebo and pinitol or D-chiro-inositol to evaluate the alleviating effect of pinitol or D-chiro-inositol on premenstrual syndrome. 2. Survey In the present disclosure, the questionnaire that experimental subjects had completed with respect to the severity of premenstrual syndrome were analyzed. The experimental subjects evaluated the placebo, pinitol, or D-chiro-inositol for a pharmacological effect on premenstrual syndrome on the basis of four grades: complete alleviation, significant alleviation, somewhat alleviation, and no change for dysmenorrhea, a period of dysmenorrhea, and coldness of hands and feet. [table]

[1] = administration group of 1,200 mg
[2] = administration group of 2,400 mg
[3] = coldness of hands and feet, 600 mg a day
[4] = coldness of hands and feet, 1,200 mg a day
[5] = coldness of hands and feet, 2,400 mg a day
[6] = period of dysmenorrhea, 600 mg a day
[7] = period of dysmenorrhea, 1,200 mg a day
[8] = period of dysmenorrhea, 2,400 mg a day

`CO[C@H]1[C@H](O)[C@@H](O)[C@@H](O)[C@H](O)[C@@H]1O` [Pinitol, pinitol] was tested, and the “share of group with somewhat or significant alleviation of the main symptoms of premenstrual syndrome” value was 50-60%, the “share of group with complete alleviation of the main symptoms” value [1] was no less than 50% and the “share of group that answered alleviation in the main symptoms” value was 80-90%. For the same compound, the “share of group that did not feel changes in the main symptoms of premenstrual syndrome” value was 10%, the “share of group with complete alleviation of the main symptoms” value [2] was 70-80% and the “alleviation, percentage” value [3] was 40.0%. The “alleviation, the number of people” value [3] was 4 person, the “complete alleviation, percentage” value [3] was 0.0% and the “complete alleviation, the number of people” value [3] was 0 person. For the same compound, the “no change, percentage” value [3] was 50.0%, the “no change, the number of people” value [3] was 5 person and the “significant alleviation, percentage” value [3] was 10.0%. The “significant alleviation, the number of people” value [3] was 1 person, the “alleviation, percentage” value [4] was 10.0% and the “alleviation, the number of people” value [4] was 1 person. The “complete alleviation, percentage” value [4] was 40.0%, the “complete alleviation, the number of people” value [4] was 4 person and the “no change, percentage” value [4] was 20.0%. The “no change, the number of people” value [4] was 2 person, the “significant alleviation, percentage” value [4] was 30.0% and the “significant alleviation, the number of people” value [4] was 3 person. For the same compound, the “alleviation, percentage” value [5] was 10.0%, the “alleviation, the number of people” value [5] was 1 person and the “complete alleviation, percentage” value [5] was 70.0%. The “complete alleviation, the number of people” value [5] was 7 person, the “no change, percentage” value [5] was 10.0% and the “no change, the number of people” value [5] was 1 person. The “significant alleviation, percentage” value [5] was 10.0%, the “significant alleviation, the number of people” value [5] was 1 person and the “effect on the main symptoms of premenstrual syndrome (dysmenorrhea, period of dysmenorrhea, coldness of hands and feet), in words” value was “Significant reductions; also recorded: significantly alleviating”. The “alleviation, percentage” value (dysmenorrhea, 600 mg a day) was 30.0%, the “alleviation, the number of people” value (dysmenorrhea, 600 mg a day) was 3 person and the “complete alleviation, percentage” value (dysmenorrhea, 600 mg a day) was 0.0%. The “complete alleviation, the number of people” value (dysmenorrhea, 600 mg a day) was 0 person, the “no change, percentage” value (dysmenorrhea, 600 mg a day) was 40.0% and the “no change, the number of people” value (dysmenorrhea, 600 mg a day) was 4 person. The “significant alleviation, percentage” value (dysmenorrhea, 600 mg a day) was 30.0%, the “significant alleviation, the number of people” value (dysmenorrhea, 600 mg a day) was 3 person and the “alleviation, percentage” value (dysmenorrhea, 1,200 mg a day) was 10.0%. For the same compound, the “alleviation, the number of people” value (dysmenorrhea, 1,200 mg a day) was 1 person, the “complete alleviation, percentage” value (dysmenorrhea, 1,200 mg a day) was 60.0% and the “complete alleviation, the number of people” value (dysmenorrhea, 1,200 mg a day) was 6 person. For the same compound, the “no change, percentage” value (dysmenorrhea, 1,200 mg a day) was 10.0%, the “no change, the number of people” value (dysmenorrhea, 1,200 mg a day) was 1 person and the “significant alleviation, percentage” value (dysmenorrhea, 1,200 mg a day) was 20.0%. For the same compound, the “significant alleviation, the number of people” value (dysmenorrhea, 1,200 mg a day) was 2 person, the “alleviation, percentage” value (dysmenorrhea, 2,400 mg a day) was 0.0% and the “alleviation, the number of people” value (dysmenorrhea, 2,400 mg a day) was 0 person. The “complete alleviation, percentage” value (dysmenorrhea, 2,400 mg a day) was 80.0%, the “complete alleviation, the number of people” value (dysmenorrhea, 2,400 mg a day) was 8 person and the “no change, percentage” value (dysmenorrhea, 2,400 mg a day) was 0.0%. For the same compound, the “no change, the number of people” value (dysmenorrhea, 2,400 mg a day) was 0 person, the “significant alleviation, percentage” value (dysmenorrhea, 2,400 mg a day) was 20.0% and the “significant alleviation, the number of people” value (dysmenorrhea, 2,400 mg a day) was 2 person. The “alleviation, percentage” value [6] was 20.0%, the “alleviation, the number of people” value [6] was 2 person and the “complete alleviation, percentage” value [6] was 0.0%. For the same compound, the “complete alleviation, the number of people” value [6] was 0 person, the “no change, percentage” value [6] was 50.0% and the “no change, the number of people” value [6] was 5 person. The “significant alleviation, percentage” value [6] was 30.0%, the “significant alleviation, the number of people” value [6] was 3 person and the “alleviation, percentage” value [7] was 20.0%. The “alleviation, the number of people” value [7] was 2 person, the “complete alleviation, percentage” value [7] was 50.0% and the “complete alleviation, the number of people” value [7] was 5 person. The “no change, percentage” value [7] was 10.0%, the “no change, the number of people” value [7] was 1 person and the “significant alleviation, percentage” value [7] was 20.0%. For the same compound, the “significant alleviation, the number of people” value [7] was 2 person, the “alleviation, percentage” value [8] was 0.0% and the “alleviation, the number of people” value [8] was 0 person. For the same compound, the “complete alleviation, percentage” value [8] was 80.0%, the “complete alleviation, the number of people” value [8] was 8 person and the “no change, percentage” value [8] was 0.0%. For the same compound, the “no change, the number of people” value [8] was 0 person, the “significant alleviation, percentage” value [8] was 20.0% and the “significant alleviation, the number of people” value [8] was 2 person.
For `O[C@H]1[C@H](O)[C@H](O)[C@@H](O)[C@H](O)[C@H]1O` [DCI, D-chiro-inositol], the “share of group with somewhat or significant alleviation of the main symptoms of premenstrual syndrome” value was 50-60%, the “share of group with complete alleviation of the main symptoms” value [1] was no less than 50% and the “share of group that answered alleviation in the main symptoms” value was 80-90%. For the same compound, the “share of group that did not feel changes in the main symptoms of premenstrual syndrome” value was 10%, the “share of group with complete alleviation of the main symptoms” value [2] was 70-80% and the “alleviation, percentage” value [3] was 30.0%. The “alleviation, the number of people” value [3] was 3 person, the “complete alleviation, percentage” value [3] was 0.0% and the “complete alleviation, the number of people” value [3] was 0 person. The “no change, percentage” value [3] was 50.0%, the “no change, the number of people” value [3] was 5 person and the “significant alleviation, percentage” value [3] was 20.0%. For the same compound, the “significant alleviation, the number of people” value [3] was 2 person, the “alleviation, percentage” value [4] was 20.0% and the “alleviation, the number of people” value [4] was 2 person. The “complete alleviation, percentage” value [4] was 50.0%, the “complete alleviation, the number of people” value [4] was 5 person and the “no change, percentage” value [4] was 10.0%. For the same compound, the “no change, the number of people” value [4] was 1 person, the “significant alleviation, percentage” value [4] was 20.0% and the “significant alleviation, the number of people” value [4] was 2 person. The “alleviation, percentage” value [5] was 0.0%, the “alleviation, the number of people” value [5] was 0 person and the “complete alleviation, percentage” value [5] was 80.0%. For the same compound, the “complete alleviation, the number of people” value [5] was 8 person, the “no change, percentage” value [5] was 10.0% and the “no change, the number of people” value [5] was 1 person. For the same compound, the “significant alleviation, percentage” value [5] was 10.0%, the “significant alleviation, the number of people” value [5] was 1 person and the “effect on the main symptoms of premenstrual syndrome (dysmenorrhea, period of dysmenorrhea, coldness of hands and feet), in words” value was “Significant reductions; also recorded: significantly alleviating”. For the same compound, the “alleviation, percentage” value (dysmenorrhea, 600 mg a day) was 20.0%, the “alleviation, the number of people” value (dysmenorrhea, 600 mg a day) was 2 person and the “complete alleviation, percentage” value (dysmenorrhea, 600 mg a day) was 0.0%. The “complete alleviation, the number of people” value (dysmenorrhea, 600 mg a day) was 0 person, the “no change, percentage” value (dysmenorrhea, 600 mg a day) was 40.0% and the “no change, the number of people” value (dysmenorrhea, 600 mg a day) was 4 person. For the same compound, the “significant alleviation, percentage” value (dysmenorrhea, 600 mg a day) was 40.0%, the “significant alleviation, the number of people” value (dysmenorrhea, 600 mg a day) was 4 person and the “alleviation, percentage” value (dysmenorrhea, 1,200 mg a day) was 20.0%. For the same compound, the “alleviation, the number of people” value (dysmenorrhea, 1,200 mg a day) was 2 person, the “complete alleviation, percentage” value (dysmenorrhea, 1,200 mg a day) was 50.0% and the “complete alleviation, the number of people” value (dysmenorrhea, 1,200 mg a day) was 5 person. For the same compound, the “no change, percentage” value (dysmenorrhea, 1,200 mg a day) was 0.0%, the “no change, the number of people” value (dysmenorrhea, 1,200 mg a day) was 0 person and the “significant alleviation, percentage” value (dysmenorrhea, 1,200 mg a day) was 30.0%. The “significant alleviation, the number of people” value (dysmenorrhea, 1,200 mg a day) was 3 person, the “alleviation, percentage” value (dysmenorrhea, 2,400 mg a day) was 0.0% and the “alleviation, the number of people” value (dysmenorrhea, 2,400 mg a day) was 0 person. For the same compound, the “complete alleviation, percentage” value (dysmenorrhea, 2,400 mg a day) was 90.0%, the “complete alleviation, the number of people” value (dysmenorrhea, 2,400 mg a day) was 9 person and the “no change, percentage” value (dysmenorrhea, 2,400 mg a day) was 0.0%. The “no change, the number of people” value (dysmenorrhea, 2,400 mg a day) was 0 person, the “significant alleviation, percentage” value (dysmenorrhea, 2,400 mg a day) was 10.0% and the “significant alleviation, the number of people” value (dysmenorrhea, 2,400 mg a day) was 1 person. The “alleviation, percentage” value [6] was 20.0%, the “alleviation, the number of people” value [6] was 2 person and the “complete alleviation, percentage” value [6] was 0.0%. The “complete alleviation, the number of people” value [6] was 0 person, the “no change, percentage” value [6] was 50.0% and the “no change, the number of people” value [6] was 5 person. The “significant alleviation, percentage” value [6] was 30.0%, the “significant alleviation, the number of people” value [6] was 3 person and the “alleviation, percentage” value [7] was 10.0%. The “alleviation, the number of people” value [7] was 1 person, the “complete alleviation, percentage” value [7] was 60.0% and the “complete alleviation, the number of people” value [7] was 6 person. For the same compound, the “no change, percentage” value [7] was 10.0%, the “no change, the number of people” value [7] was 1 person and the “significant alleviation, percentage” value [7] was 20.0%. The “significant alleviation, the number of people” value [7] was 2 person, the “alleviation, percentage” value [8] was 0.0% and the “alleviation, the number of people” value [8] was 0 person. The “complete alleviation, percentage” value [8] was 80.0%, the “complete alleviation, the number of people” value [8] was 8 person and the “no change, percentage” value [8] was 0.0%. For the same compound, the “no change, the number of people” value [8] was 0 person, the “significant alleviation, percentage” value [8] was 20.0% and the “significant alleviation, the number of people” value [8] was 2 person.
